Consider 1 molecule from article PMC9124820, “In vitro evaluation of fenfluramine and norfenfluramine as victims of drug interactions” (Pharmacology Research & Perspectives, 2022).

Some results are limits rather than exact numbers.

As usually defined, the half-life is how long it takes for the measured level to halve. In general, microsomal CLint refers to the rate of metabolic loss divided by the concentration.

Data set [1] can be described thus: Metabolic stability and metabolite identity, human intestinal S9 fractions. It counts as in vitro ADME. The conditions noted are these: pH 7.4, 1 µM FFA, human intestine S9 fractions, outside assay detection limits. The method, then:
(§1) LC‐MS/MS analyses to assess metabolic stability and identify the transporter substrate were performed using an API 4000 QTRAP mass spectrometer (SCIEX, Framingham, MA) with electrospray ionization in positive mode. Chromatography was performed using an Atlantis dC18 analytical column (100 × 2.1 mm, 5 µm; Waters Corporation, Milford, MA). Mobile phases were 0.2% v/v formic acid in water and 0.2% v/v formic acid in acetonitrile. For metabolic stability experiments, FFA and metabolites were eluted at a flow rate of 0.6 mL/min, with a linear gradient of 20%−80% acetonitrile from 0.30−2.0 min. […] The mass transitions monitored were 232.0 > 159.0 for FFA and 348.0 > 330.0 for 1ʹ‐OH‐midazolam‐d4 internal standard. […]
(§2) FFA (1 or 10 µM) was incubated with liver and intestinal S9 fractions (2 mg protein/mL) at 37 ± 1°C in 0.2‐mL incubation mixtures containing potassium phosphate buffer (50 mM, pH 7.4), magnesium chloride (MgCl2) (3 mM), and EDTA (1 mM, pH 7.4), in the presence or absence of a three‐component cofactor mixture (NADPH‐generating system, uridine diphosphate glucuronic acid (UDPGA) [8 mM], and 3’‐phosphoadenosine 5’‐phosphosulfate [0.5 mM]). […] Supernatant fractions were analyzed by LC‐MS/MS.
(§3) To characterize substrate loss and metabolic stability, duplicate samples were analyzed by LC‐MS/MS to determine the change in substrate concentration over the incubation period. […]

The nature of data set [2]: Metabolic stability and metabolite identity, dog liver S9 fractions. It counts as in vitro ADME. The conditions noted are these: pH 7.4; 1 µM FFA, dog liver S9 fractions 2 mg protein/mL. How it is done:
as §1, §2, §3

For the molecule `CCNC(C)Cc1cccc(C(F)(F)F)c1` (racemic) [FFA, (RS)‐ethyl (α‐methyl‐3‐trifluoromethylphenethyl)amine], the half-life at 1 µM was more than 120 min in data set [1] and 30 min in data set [2]. The microsomal CLint at 1 µM is less than 2.9 µL/min/mg in data set [1] and 11.6 µL/min/mg in data set [2].
